Tests used:
[1] = biological target: T1, human ghrelin receptor (GRLN, growth hormone secretagogue receptor, hGHS-R1a) (Homo sapiens, UniProt Q92847); assay: Competitive radioligand binding assay (ghrelin receptor), Method B1; details: Ghrelin receptor binding activity, Method B1
T1 construct: purchased PerkinElmer BioSignal #RBHGHSM, lot#1887; host or cells: HEK-293 cells, stably transfected (membranes)
In short: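 Filtration competition format: bound radioactivity counted after GF/C harvesting and cold 50 mM Tris-HCl washes. Incubation lasted 30 min at room temperature in Hepes pH 7.4 buffer with Ca2+, Mg2+, EDTA and 0.4% BSA (DMSO ≤0.1% final); values from variable-slope non-linear regression.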

[2] = system: rat stomach fundus strips; assay: Ex-vivo potency evaluation on the rat stomach fundus (inhibition of ghrelin-induced contractility), Method B10; details: EFS
Experimental: B10. Ex-vivo Potency Evaluation on the Rat Stomach Fundus
Fundus strips (approximately 0.4×1 cm) were cut from the stomach of adult male Wistar rats parallel to the circular muscle fibers. They were placed between two platinum ring electrodes, 1 cm apart (Radnoti, ADlnstruments, USA) in 10 ml tissue baths containing Krebs solution bubbled with 5% CO2 in O2 and maintained at 37° C. Tissues were suspended under 1.5 g resting tension. Changes of tension were measured isometrically with force transducers and recorded with a PowerLab 8/30 data acquisition system (ADlnstruments, USA). Tissues were allowed to equilibrate for 60 min during which time bath solutions were changed every 15 min.
EFS was achieved by applying 0.5 ms pulses, 5 Hz frequency, at a maximally effective voltage of 70 V. EFS was applied for 30 sec at 3 min intervals for a 30 min initial period. This initial period was separated by a […] interval with wash out of the bath solution. Then, a second period of stimulation was started. […] Responses to the agents were measured and expressed as % of the mean of three or four pre-drug responses to EFS. All compounds were dissolved at 1 mM in distilled water or MeOH, as stock solutions.
IC50 values for the inhibition of ghrelin-induced contractility by representative compounds of the invention are presented in Table 7.

[3] = biological target: T2, GHS-R1a receptor (HEK293 cells expressing GHS-R1a receptor) (Homo sapiens, UniProt Q92847); assay: Fluorescence functional assay (ghrelin receptor), Method B2, agonist and antagonist mode; assay type: cell-based; details: functional activity as an antagonist at the ghrelin receptor, Methods B2 and B3
T2 construct: host or cells: HEK293
In short: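 Calcium flux read by ImageTrak epifluorescence in HEK293 cells stably expressing GHS-R1a, loaded 1 h at 37 °C with Calcium-3 dye; buffer HBSS/20 mM Hepes, pH 7.4, with probenecid and BSA. Agonists injected after 10 s baseline, read 50 s more; antagonists 3 min. Sigmoidal fits gave EC50 or IC50.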

[4] = Metabolic stability in human liver microsomes, Method B8; assay type: in vitro ADME; details: human liver microsomes 0.8 mg/mL, 5 μM compound, 37° C.
Text: B8. Metabolic Stability in Human Liver Microsomes
The liver is the primary site for phase I (oxidation) and phase II (glucuronidation) enzymatic activity responsible for xenobiotic metabolism. Human liver microsomes are used as in vitro screen of metabolic activity for candidate drugs. Similar studies can be run with microsomes from other species, such as those used for in vivo studies, to determine any significant species differences in the stability profile. The aim of this study was to measure the broad-spectrum metabolic stability of representative compounds of the invention. The key aspects of the experimental design are summarized below: • Human liver microsomes (mixed pool of 15 male and female donors) were purchased from In Vitro Technologies (Baltimore, Md.). • Microsomes characterized for phase I (Cyp2A6, 2D6, 2E1, 1A2, 2C19, 3A4, 4A) and phase II (glucuronidation) enzymatic activity. • Assays are performed using a final concentration of 0.8 mg/mL of microsomes in 100 mM potassium phosphate buffer (1.5 mM NADPH, 8 mM MgCl2, pH 7.4, 37° C.). • Compounds are tested in duplicate samples at a single concentration of 5 μM (0.05% DMSO). • Test articles are incubated with the microsomes at 37° C.

[5] = biological target: T3, ghrelin receptor (HEK-GHSR1 stable cells) (Homo sapiens, UniProt Q92847); assay: Ghrelin receptor inverse agonist assay (HTRF IP-one), Method B4; assay type: cell-based; details: inverse agonist at the ghrelin receptor, Method B4
T3 construct: expressed in transfected cells
Text: B4. Ghrelin Receptor Inverse Agonist Assay […]
In addition, the following method can be utilized to assay for inverse agonist activity. (Thomsen, W.; et al. Curr. Opin. Biotechnol. 2005, 16, 655-665; Tozawa-Takahashi F; et al., 11th SBS Annual Conference. September 2005, Geneva; Trinquet, E.; Fink, M.; Bazin, H.; et al. Anal. Biochem. 2006, 358, 126-135; Bergsdorf, C.; Kropp-Goerkis, C.; Kaehler, I.; Ketscher, L.; Boerner, U.; Parczyk, K.; Bader, B. Assay Drug Dev. Technol. 2008, 6, 39-53.)
• 1. Remove culture medium from the plate by inversion. • 2. Add 70 μl of compound/well. • 3. Incubate 30 min at 37° C. • 4. Stop the reaction by adding 15 μl of lysis buffer/well. • 5. Add 15 μl of d2/well. • 6. Add 15 μl of Anti-IP1 cryptate/well. • 7. Incubate 1 h at room temp on an orbital shaker at 100 RPM. • 8. Read the fluorescence in a plate reader (Tecan GeniosPro or similar)
The above sequence was performed using the HTRF IP-one kit (CisBio cat#62P1APEC). For the simultaneous assay of multiple test compounds, 96-well plates can be utilized in this assay (white plate with flat-bottom well, Falcon #353296). These were seeded overnight with 100 000 of HEK-GHSR1 stable cells/well. • Wells A1 and A2 of each plate are used as negative control (wells without d2). Compounds are typically tested in replicate at the following concentrations:
Compounds are stored at 10 mM in 100% DMSO.
1st dilution 1/10 in 100% DMSO (1 mM final concentration).
2nd dilution 1/10 in H2O (0.1 mM final concentration).
Other dilutions are performed in a 96-well plate in stimulation buffer.
The results for representative compounds of the invention are provided in the Examples.

[6] = Pharmacokinetic analysis (intravenous and oral), Method B9; assay type: in vivo; details: Table 10b; 2 mg/mL intravenous typically employed
Text: B9. Pharmacokinetic Analysis
The pharmacokinetic (PK) behavior of compounds of the invention and their pharmaceutical compositions can be ascertained by methods well known to those skilled in the art and can be used to investigate the pharmacokinetic parameters (elimination half-life, total plasma clearance, etc.) for intravenous, subcutaneous and oral administration of these substances. (Wilkinson, G. R. “Pharmacokinetics: The Dynamics of Drug Absorption, Distribution, and Elimination” in Goodman & Gilman's The Pharmacological Basis of Therapeutics, Tenth Edition, Hardman, J. G.; Limbird, L. E., Eds., McGraw Hill, Columbus, Ohio, 2001, Chapter 1.) See also U.S. Pat. Nos. 7,476,653; 7,491,695; Intl. Pat. Appl. WO 2008/033328 and U.S. Patent Appl. Publ. 2008/0194672. As an example, compound 1505 has the PK profile below.
The determination of PK parameters for additional representative compounds of the invention is presented in the Examples.
A detailed analysis of the pharmacokinetic profile of representative compounds of the invention was conducted using the procedures outlined in Method B9.
A dose level of 2 mg/mL for intravenous administration and 8 mg/mL for oral administration were typically employed.

T2 sequence (Q92847 whole entry): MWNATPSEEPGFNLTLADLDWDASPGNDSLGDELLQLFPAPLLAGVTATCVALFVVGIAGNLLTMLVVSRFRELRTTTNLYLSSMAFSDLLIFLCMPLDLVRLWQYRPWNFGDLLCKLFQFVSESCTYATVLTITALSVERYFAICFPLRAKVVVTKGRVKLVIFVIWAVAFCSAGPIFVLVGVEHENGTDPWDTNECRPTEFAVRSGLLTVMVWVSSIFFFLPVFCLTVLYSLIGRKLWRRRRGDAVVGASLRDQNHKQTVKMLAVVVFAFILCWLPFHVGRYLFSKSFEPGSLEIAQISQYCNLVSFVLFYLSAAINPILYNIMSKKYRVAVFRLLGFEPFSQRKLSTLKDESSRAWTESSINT
T3 sequence (Q92847 whole entry): as above
T1 sequence (Q92847 whole entry): as above

Row | SMILES | IC50 [1] [nM] | Ki [1] [nM] | IC50 [2] [nM] | Antagonist Activity [3] | HLM, metabolic stability in human liver microsomes [4] [μL/min/mg protein] | IC50 [5] [nM] | Cl [6] [mL/min/kg] | t1/2 [6] [h]
1 | CCC(C)[C@@H]1NCCOc2ccccc2/C=C/[C@@H](C)NC(=O)[C@@H](Cc2ccccc2)NC(=O)[C@H](C(C)O)N(C)C1=O (some centres unmarked) [Compound 1315] | 1 to 10 | 1 to 10 | 75 | C (C = 10-100 nM) |  |  |  | 
2 | CC(C)[C@@H]1NCCOc2ccccc2CC[C@@H](C)NC(=O)[C@@H](Cc2cccc(F)c2)NC(=O)[C@H](C(C)O)N(C)C1=O (some centres unmarked) [Compound 1364] |  |  | 200 | B (B = 1-10 nM) |  |  |  | 
3 | CC(C)C1NCCOc2cc(F)ccc2C=CCNC(=O)C(Cc2ccc(F)cc2)NC(=O)C(C(C)O)N(C)C1=O (centres unmarked) [Compound 1690] | 1 to 10 |  |  |  | 21.8 | 50 to 100 |  | 
4 | CC(C)C1NCCOc2ccccc2C#CCNC(=O)C(Cc2cccc(F)c2)NC(=O)C(C(C)O)N(C)C1=O (centres unmarked) [Compound 1691] | 1 to 10 |  |  |  | 53.7 | 100 to 500 |  | 
5 | CCC(C)C1NCCOc2ccccc2CCCNC(=O)C(Cc2ccc(Cl)cc2)NC(=O)C(C(C)O)N(C)C1=O (centres unmarked) [Compound 1699] | 10 to 100 |  |  | C (C = 10-100 nM) | 85.2 | 100 to 500 |  | 
6 | CC(C)C1NCCOc2cc(F)ccc2C=CCNC(=O)C(Cc2ccccc2)NC(=O)C(C(C)O)N(C)C1=O (centres unmarked) [Compound 1702] | 1 to 10 |  |  |  | 14.1 | 50 to 100 |  | 
7 | CCC(C)C1NCCOc2ccccc2C#CCNC(=O)C(Cc2ccc(Cl)cc2)NC(=O)C(C(C)O)N(C)C1=O (centres unmarked) [Compound 1704] | 10 to 100 |  |  |  | 33.5 | 100 to 500 |  | 
8 | CC[C@@H]1CCc2c(F)cccc2OCCN[C@@H](C(C)C)C(=O)N(C)[C@@H](C(C)O)C(=O)N[C@H](Cc2ccc(F)cc2)C(=O)N1 (some centres unmarked) [Compound 1723] | 10 to 100 |  |  |  | 64.3 | 100 to 500 |  | 
9 | CC[C@@H]1CCc2c(F)cccc2OCCN[C@@H](C(C)C)C(=O)N(C)[C@@H](C(C)O)C(=O)N[C@H](Cc2c[nH]c3ccccc23)C(=O)N1 (some centres unmarked) [Compound 1725] | 10 to 100 |  |  |  | 66.5 | 100 to 500 |  | 
10 | CCC(C)C1NCCOc2ccccc2C=CCNC(=O)C(Cc2ccccc2C)NC(=O)C(C(C)O)N(C)C1=O (centres unmarked) [Compound 1737] | 1 to 10 |  |  |  | 83.9 | 50 to 100 |  | 
11 | CCC(C)C1NCCOc2ccccc2C=CCNC(=O)C(Cc2ccccc2Cl)NC(=O)C(C(C)O)N(C)C1=O (centres unmarked) [Compound 1738] | 1 to 10 |  |  |  | 53.2 | 10 to 50 |  | 
12 | CCC(C)C1NCCOc2cc(F)ccc2C=CCNC(=O)C(Cc2ccc(Cl)cc2)NC(=O)C(C(C)O)N(C)C1=O (centres unmarked) [Compound 1739] | 1 to 10 |  |  | B (B = 1-10 nM) | 26.1 | 100 to 500 |  | 
13 | CCC(C)C1NCCOc2ccc(F)cc2C=CCNC(=O)C(Cc2ccc(Cl)cc2)NC(=O)C(C(C)O)N(C)C1=O (centres unmarked) [Compound 1740] | 1 to 10 |  |  | C (C = 10-100 nM) | 28.3 | 100 to 500 |  | 
14 | CC(O)[C@H]1C(=O)N[C@H](Cc2ccc(Cl)cc2)C(=O)N[C@H](C)CCc2ccccc2OCCN[C@@H](C(C)(C)C)C(=O)N1C (some centres unmarked) [Compound 1742] | 10 to 100 |  |  |  | 157.4 | 10 to 50 |  | 
15 | CC(O)[C@H]1C(=O)N[C@H](Cc2c[nH]c3ccccc23)C(=O)N[C@H](C)CCc2ccccc2OCCN[C@@H](C2CC2)C(=O)N1C (some centres unmarked) [Compound 1745] | 10 to 100 |  |  |  | 117.0 | 100 to 500 |  | 
16 | CC(C)[C@@H]1NCCOc2cc(F)ccc2CC[C@@H](C)NC(=O)[C@@H](Cc2ccc(Cl)cc2)NC(=O)[C@H](C(C)O)N(C)C1=O (some centres unmarked) [Compound 1758] | 1 to 10 |  |  |  | 90.4 | 10 to 50 |  | 
17 | CC[C@@H]1C#Cc2ccc(F)cc2OCCN[C@@H](C(C)C)C(=O)N(C)[C@@H](C(C)O)C(=O)N[C@H](Cc2ccccc2)C(=O)N1 (some centres unmarked) [Compound 1759] | 1 to 10 |  |  |  | 40.6 | 50 to 100 | 14 ± 2 | 1.98 ± 1.68
18 | CC[C@@H]1C#Cc2ccc(F)cc2OCCN[C@@H](C(C)C)C(=O)N(C)[C@@H](C(C)O)C(=O)N[C@H](Cc2cccc(F)c2)C(=O)N1 (some centres unmarked) [Compound 1760] | 1 to 10 |  |  |  | 34.8 | 50 to 100 |  | 
19 | CCC(C)C1NCCOc2ccccc2C=CCNC(=O)C(Cc2ccc(Cl)cc2Cl)NC(=O)C(C(C)O)N(C)C1=O (centres unmarked) [Compound 1761] | 10 to 100 |  |  |  | 77.0 | 50 to 100 |  | 
20 | CC(O)[C@H]1C(=O)N[C@H](Cc2c[nH]c3ccccc23)C(=O)N[C@H](C)CCc2ccccc2OCCN[C@@H](C(C)(C)C)C(=O)N1C (some centres unmarked) [Compound 1762] | 10 to 100 |  |  |  | 73.4 | 100 to 500 |  | 
